The source of these data is patent US20040254229A1, “Use of glucose uptake enhancer for reducing apoptosis” (SmithKline Beecham p.l.c. and SmithKline Beecham …, priority 1998, published 2004).

The subject of test [1] is isolated working hearts from male Wistar rats. Kind of test: Isolated working hearts from normal male Wistar rats: ventricular function, zero-flow ischaemia and re-perfusion. Also noted: species or system rat. As for the experimental part: Test Systems: Male Wistar rats (Charles River; St Aubin lès Elbeuf, France), with a body weight ranging from 260 to 280 g were housed on a 12h/12h light-dark cycle with access to water and standard rat chow ad libitum. An acclimatisation period of at least one week was allowed prior to experiment.
(§1) Perfusion of isolated hearts: Rats were anaesthetized using thiopental sodium (50 mg/kg body weight intraperitoneally). Hearts from normoglycaemic and one-month STZ-induced diabetic rats, were quickly removed and immersed in ice-cold buffer to produce an immediate cessation of contractility. The aorta was dissected free and then mounted onto a cannula attached to a perfusion apparatus. Retrograde perfusion of the heart was started for 10 min by the Langendorff method and then switched to perfusion using the working-heart technique. […] The perfusate was not recirculated. Preload was held at a pressure of 15 cm H2O and afterload, as well as coronary perfusion pressure, were kept constant at 80 cm H2O.
(§2) Aortic and coronary flows ([…]) were measured by timed collection. Cardiac output ([…]) was derived from the sum of the aortic and coronary flows. Stroke volume (ml/beat) was derived by dividing cardiac output by heart rate.
(§3) Induction of global ischaemia and re-perfusion: Total ischaemia was initiated by clamping the left atrium and the aortic perfusion tubes and reducing coronary flow to zero for 30 minutes. The hearts were then re-perfused at 37° C. in working heart mode and recovery of ventricular function was followed for 30 minutes.
(§4) Data Handling & Analysis: The data are presented as the mean±SEM. Statistical significance of differences was determined using Student's t-test. Differences with p<0.05 were considered to be statistically significant.

In test [2] the test system is isolated working hearts from STZ-diabetic rats. In words: Isolated working hearts from STZ-diabetic male Wistar rats: ventricular function, zero-flow ischaemia and re-perfusion. Also noted: species or system rat. How it is done: A solution of streptozotocin (STZ commercially available) was prepared in citrate buffer (40 mg/ml).
Induction of experimental diabetes: Male Wistar rats weighing between 300 and 320 g were fasted overnight and made diabetic by a single intravenous injection of STZ, 40 mg/kg body weight. The development of diabetes and its persistence were monitored by serial quantitative measurements of glucose in the urine with reagent strips. On the day of the experiment, the severity of diabetes was assessed by measuring glucose concentrations from blood samples collected at the time of heart excision. Only rats with plasma glucose levels exceeding 20 mM were considered diabetic and included in these experiments.
as §1, §2, §3, §4

[3] abbreviates: baseline ventricular function, normal male Wistar rats, 1 μM in the perfusate pre-ischaemia, mean±SEM.
[4] abbreviates: baseline ventricular function, STZ-diabetic male Wistar rats, 1 μM in the perfusate pre-ischaemia, n = 6, mean±SEM.

As to `CN(CCOc1ccc(CC2SC(=O)NC2=O)cc1)c1ccccn1` (stereo not drawn) [Compound (I), 5-[4-[2-(N-methyl-N-(2-pyridyl)amino)ethoxy]benzyl]thiazolidine-2,4-dione], in test [1] (setting [3]), the “Aortic Flow” value worked out at 34.0 ± 0.7 mL/min, the “Cardiac Output” value is 51 ± 1 mL/min, the “Coronary Flow” value was found to be 16.6 ± 0.6 mL/min and the “Heart Rate” value came to 317 ± 15 beats/min. In addition, the “Peak Systolic Pressure” value in test [1] (setting [3]) was 73 ± 1 mmHg. In test [1] (normal rat hearts), the “protective properties in hearts subjected to zero-flow ischaemia in vitro” value is on record as “protective properties of rapid onset”. Moreover, in test [2] (setting [4]), the “Aortic Flow” value came out at 42.3 ± 1.5 mL/min, the “Cardiac Output” value is 54.4 ± 1.7 mL/min, the “Coronary Flow” value is 12.1 ± 0.4 mL/min and the “Heart Rate” value amounted to 225 ± 14 beats/min. The “Peak Systolic Pressure” value in test [2] (setting [4]) came to 76 ± 2 mmHg. Moreover, in test [2] (diabetic rat hearts), the “protective properties in hearts subjected to zero-flow ischaemia in vitro” value is recorded as “protective properties of rapid onset”.
